Key:
[1] = tested on: XMEN CD34^+ HSPCs; assay: Viability of gene-edited CD34+ HSPCs by trypan blue exclusion; assay type: cell-based, human; settings: day 2 post-EP
Text: (§1) (A) Location of the 10 candidate sgRNAs targeting MAGT1 gene transcription start site (TSS). Each sgRNA (sg) is represented as a 20-bp sequence (light grey or green) associated with the 3-bp PAM sequence (darker color). (B) Evaluation of the percentage of cutting activity by TIDE assay after gDNA extraction from untreated versus Cas9/sgRNA treated HD CD34+ cells at 2-5 days post electroporation, sequencing of Exon 1 and comparison of the sequences using TIDE software (n=1-5 independent experiments). (C) Design of the rAAV6-MAGT1 donor. (D) Molecular analysis showing the percentage of targeted insertion in gene-edited XMEN CD34+ cells using gene editing enhancers as described. gDNA was extracted at 48 h-72 h post-EP and insertion of the MAGT1 cDNA donor was quantified by ddPCR (n=3-11 independent experiments). (E) Viability determined by blue trypan exclusion in untreated Naive and AAV-MAGT1-treated XMEN HSPCs at day 2 post-EP (n=1-7 independent experiments). (F) Representative analysis of the phenotype of CD34+ cells at day 2 post-EP. For all the graphs, data are shown as mean±standard deviation (SD); ANOVA one-way test and Tukey's post hoc multiple comparisons test, *p<0.05, *p<0.01, ***p<0.001, ****p<0.0001.
Cryopreserved CD34^+ HSPCs were thawed (day 0) and cultured in StemSpan SFEM II medium (STEMCELL™ Technologies) supplemented with 100 ng/mL stem cell factor (SCF), Flt3 ligand, thrombopoietin (Peprotech), 0.75 μM of StemRegenin-1 (STEMCELL™ Technologies) and 35 nM of UM171 (STEMCELL™ Technologies) for 2 days (37). […] At 48 h post-EP, the cells were harvested and counted by hemocytometer with trypan blue to determine viability before their use for molecular analysis, phenotypic analysis by flow cytometry, CFU assay, T or NK cell differentiation or cryopreservation for transplant studies.

[2] = tested on: HSPCs; assay: Innate immune, transcriptional and toxicity response of HSPCs to the mRNAs during gene editing
[3] = tested on: XMEN CD34^+ HSPCs; assay: Targeted insertion (TI) of MAGT1 cDNA by ddPCR in gene-edited CD34+ HSPCs; assay type: cell-based, human; settings: ddPCR 48-72 h post-EP, input pre-transplant
Text: as §1, with “For all the graphs, data are shown as mean±standard deviation (SD); ANOVA one-way test and Tukey's post hoc multiple comparisons test, *p<0.05, *p<0.01, ***p<0.001, ****p<0.0001.” left out
(§2) Targeted insertion (TI) of MAGT1 cDNA was quantified by digital droplet PCR (ddPCR) using one primer located upstream of the LHA (5′-[…]−3′, SEQ ID NO:42) the second primer (5′-[…]-3′, SEQ ID NO:43) inside the cDNA and a probe (5′-[…]-3′, SEQ ID NO:44).

[4] = tested on: NK cells (CD3-CD56^+) differentiated from XMEN CD34^+ HSPCs; assay: In vitro NK cell differentiation from gene-edited CD34+ cells: NKG2D expression and TI; assay type: cell-based, human
Text: (B) Dot plot showing the gating for NK cells (CD3-CD56+) and NKG2D expression after 35 days of in vitro NK cell differentiation from CD34+ cells; histogram on the right showing the percentage of CD34-derived NK cells in each condition (n=2-8 independent experiments). (C) NKG2D expression and (D) targeted integration in NK cells at day 35 of in vitro differentiation (n=2-8 independent experiments). (E) Cytotoxic activity of CD34+-differentiated NK cells against K562 cells at an E:T ratio of 2:1 (n=1-7 independent experiments). For all the graphs, data are shown as mean±SD; *p<0.05, *p<0.01, ***p<0.001, ****p<0.0001. (F) Correlation between the NKG2D expression (%) and the killing activity (%) in NK cells at day 35 was calculated using Spearman's correlation coefficient and two-tailed p-value (n=21 samples).
CD34^+ HSPCs were differentiated into NK cells in vitro using a protocol adapted from (47). 200,000 CD34^+ cells were resuspended in IMDM supplemented with 20% FBS and 50 μM BME containing 5 ng/mL rhIL-3 (first week only), 10 ng/mL IL-15, 20 ng/mL IL-7, 20 ng/mL SCF, 10 ng/mL Flt3L and 100 U/mL IL2 for 35 days. […]
as §2

[5] = tested on: HSPCs; settings: HSPCs from patients with CGD, SCD, SCID-X1; cited from earlier work
[6] = tested on: NSGS immunodeficient mice; assay: Transplantation of gene-edited XMEN CD34+ HSPCs into NSGS mice; assay type: in vivo, mouse; settings: for post-transplant TI: ddPCR, human CD45+ cells from bone marrow, week 16
Text: (A) Human engraftment measured by the presence of human CD45^+ cells by flow cytometry at week 16 in the peripheral blood, bone marrow, spleen and thymus of NSGS mice transplanted with HD (n=5 mice), untreated (n=12) or gene-edited XMEN CD34^+ HSCs (n=1 (−i53), n=8 (+i53), n=18 (+i53^+ GSE-CS56)). The dotted line indicates the threshold for engraftment at 0.2% hCD45^+ cells in the bone marrow. (B) Percentage of human engraftment (hCD45^+) measured after injection of XMEN HSPCs gene edited with increasing Multiplicity of Infection (MOIs) of AAV, in presence of i53 alone or i53 and GSE-CS56. (C) Immunophenotypic analysis of bone marrow at 16 weeks post-transplant by flow cytometry showing the percentages of CD34^+ cells, myeloid (CD33^+), lymphoid B (CD19^+) and T (CD3^+) after gating on the hCD45^+ population. (D and E) Restoration of NKG2D expression in NK cells from the spleen (D) and CD8^+ T cells from the peripheral blood, spleen and thymus (E) at week 16 post-transplant. For all the graphs, data are shown as mean±SD. (F and G) Targeted insertion quantified by ddPCR in human CD45^+ cells isolated from the bone marrow after gene editing with i53 (orange bar) or with i53 and GSE-CS56 (green bar) (F); or in the lymphoid T (CD3), myeloid (CD33/CD14) and lymphoid B (CD19) cells sorted from the spleen (G).
The use of triple transgenic immunodeficient mice NOD.Cg-Prkd^scid Il2rg^tm1Wjl Tg (NSG-SGM3 or NSGS) expressing human IL3, GM-CSF and SCF cytokines (30) (Stock No: 013062; The Jackson Laboratory) for transplantation studies was approved by NIAID Institutional Animal Care and Use Committee under the animal use protocol LCIM-1E. The conduct of these studies conforms to AAALAC International guidelines and all US federal regulations required for protection of research animals. Newborn mice (0-4 days old) were irradiated at 100 cGy and immediately intrahepatically injected (courtesy of Mara Pavel-Dinu) with 1-1.5×10^6 viable CD34^+ cells per mouse. Peripheral blood from tail vein was analyzed at weeks 12 and 16 after transplantation. At 16 weeks, mice were sacrificed, and bone marrow, spleen and thymus were harvested for analysis of engraftment, sorting or gDNA extraction as indicated. […]
as §2

[7] = target: T1, 53BP1 (Homo sapiens, UniProt Q12888); settings: blocking 53BP1 tudor domain binding to H4K20me2; cited from earlier work
T1 construct: endogenous in cells
T1 sequence (Q12888 whole entry, the tested form may be a part): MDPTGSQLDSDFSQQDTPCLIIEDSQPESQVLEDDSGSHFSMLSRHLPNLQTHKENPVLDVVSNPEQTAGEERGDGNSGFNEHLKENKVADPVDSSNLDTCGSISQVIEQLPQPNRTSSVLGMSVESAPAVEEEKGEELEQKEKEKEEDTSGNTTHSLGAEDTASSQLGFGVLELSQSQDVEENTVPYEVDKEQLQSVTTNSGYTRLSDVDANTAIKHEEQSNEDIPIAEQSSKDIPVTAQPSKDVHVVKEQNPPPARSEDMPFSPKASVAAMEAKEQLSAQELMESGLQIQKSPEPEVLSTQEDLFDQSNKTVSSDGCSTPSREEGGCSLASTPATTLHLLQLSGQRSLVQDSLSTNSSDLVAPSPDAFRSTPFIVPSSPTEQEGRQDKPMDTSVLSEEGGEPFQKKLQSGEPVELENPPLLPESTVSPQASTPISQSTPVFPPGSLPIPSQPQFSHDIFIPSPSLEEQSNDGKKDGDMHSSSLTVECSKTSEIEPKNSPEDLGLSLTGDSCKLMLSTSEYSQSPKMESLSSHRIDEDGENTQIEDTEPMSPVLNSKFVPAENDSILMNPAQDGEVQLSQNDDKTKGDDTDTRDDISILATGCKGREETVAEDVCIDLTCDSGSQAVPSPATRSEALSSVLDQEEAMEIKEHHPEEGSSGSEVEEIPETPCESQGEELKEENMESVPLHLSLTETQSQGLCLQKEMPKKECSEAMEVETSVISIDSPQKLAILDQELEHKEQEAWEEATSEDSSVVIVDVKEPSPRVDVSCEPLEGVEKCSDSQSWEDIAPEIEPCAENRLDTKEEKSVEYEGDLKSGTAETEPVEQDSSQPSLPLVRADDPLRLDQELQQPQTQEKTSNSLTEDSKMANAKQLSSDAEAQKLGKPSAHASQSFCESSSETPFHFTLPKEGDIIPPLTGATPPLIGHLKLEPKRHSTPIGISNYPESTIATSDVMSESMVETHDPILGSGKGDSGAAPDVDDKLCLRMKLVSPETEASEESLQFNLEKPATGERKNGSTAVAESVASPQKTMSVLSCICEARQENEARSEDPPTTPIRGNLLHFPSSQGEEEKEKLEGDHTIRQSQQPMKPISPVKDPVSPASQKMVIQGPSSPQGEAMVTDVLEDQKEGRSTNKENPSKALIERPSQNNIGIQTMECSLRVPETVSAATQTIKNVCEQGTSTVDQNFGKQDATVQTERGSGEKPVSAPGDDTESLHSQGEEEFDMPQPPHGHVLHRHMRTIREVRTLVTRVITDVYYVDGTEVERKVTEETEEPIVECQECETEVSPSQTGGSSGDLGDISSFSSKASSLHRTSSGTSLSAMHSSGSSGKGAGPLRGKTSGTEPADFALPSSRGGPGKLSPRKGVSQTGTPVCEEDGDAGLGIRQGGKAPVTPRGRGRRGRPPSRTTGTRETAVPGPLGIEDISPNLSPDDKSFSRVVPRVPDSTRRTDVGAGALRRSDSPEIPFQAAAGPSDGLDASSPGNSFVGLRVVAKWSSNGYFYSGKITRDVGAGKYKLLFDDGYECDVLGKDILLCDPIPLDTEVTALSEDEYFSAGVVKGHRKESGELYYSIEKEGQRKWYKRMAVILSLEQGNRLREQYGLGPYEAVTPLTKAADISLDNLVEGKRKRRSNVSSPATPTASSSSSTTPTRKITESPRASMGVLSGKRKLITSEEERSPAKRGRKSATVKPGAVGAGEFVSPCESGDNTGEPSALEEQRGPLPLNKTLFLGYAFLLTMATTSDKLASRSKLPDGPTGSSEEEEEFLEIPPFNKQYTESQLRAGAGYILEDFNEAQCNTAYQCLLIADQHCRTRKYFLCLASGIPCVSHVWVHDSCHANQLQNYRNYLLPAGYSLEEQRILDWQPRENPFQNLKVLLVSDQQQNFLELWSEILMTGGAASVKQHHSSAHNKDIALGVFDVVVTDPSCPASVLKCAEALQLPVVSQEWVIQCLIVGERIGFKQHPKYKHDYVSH

[8] = tested on: CD34^+ HSPCs; assay: CFSE proliferation assay; assay type: cell-based, human; settings: CFSE stain day 1 post EP, flow cytometry day 6
Text: (A) Optimization of cutting activity (% indels) of various forms of Cas9 mRNA and at increasing concentration. Commercial Cas9 mRNA (MaxCyte, Mx) is used as control. (B) Evaluation of the glycerol concentration in the EP mix on viability and cutting activity at day 2 post EP. (C) Representative dot plots showing the immunophenotype analysis of HSPCs by flow cytometry at day 2 post EP. (D) Hematopoietic potential evaluated by the CFU assay at day 2 post-EP; Number of CFU colonies were counted after 14 days. (E) Measure of the proliferation index after staining HD HSPCs at day 1 post EP with CFSE dye and analysis of the proliferation by flow cytometry at day 6 post EP.
The following day after EP, CD34^+ cells were stained with CellTrace™ CFSE kit per manufacturer's instructions (ThermoFisher Scientific) and analyzed by flow cytometry 5 days later. Determination of the proliferation index was done using FlowJo software.

i53 mRNA: pseudouridine-modified mRNA encoding i53, an inhibitor of 53BP1 (ubiquitin variant, SEQ ID NO:6)
viability of GE CD34+ HSPCs [1]: decreased after gene editing, independently of i53
upregulation of interferon or other cytokines or cellular stress genes, transcriptional repression, toxicity or loss of viability [2]: not observed any significant upregulation
AAV-MAGT1 TI rates (targeted insertion) [3]: 50.0±18.2%
NKG2D expression in in vitro differentiated NK cells ([4]; day 35 of culture): 26%
molecular TI rates in NK cells ([4]; day 35 of in vitro differentiation, ddPCR): 34%
levels of HDR-mediated TI with AAV donors or gene correction with ssODN donors [5]: above 60%
post-transplant TI [6]: 54.5±18.3%
engraftment of human CD45+ cells in the BM ([6]; week 16, NSGS mice, bone marrow): 11.03%

i53 protein: ubiquitin variant (SEQ ID NO:2) of Canny et al. that binds the tandem tudor domain of 53BP1
increase of repair by HDR [7]: about 2 fold

B1: GSE CS-56 mRNA: mRNA encoding a human TP53 genetic suppressor element, a dominant negative deletion mutant of TP53 (nucleic acid)
chain: GGGUAAUACAAGCUUGCUUGUUCUUUUUGCAGAAGCUCAGAAUAAACGCUCAACUUUGGCAGCCACCAUGGAUUGUCCUGGGAGAGACCGGCGCACAGAGGAAGAGAAUCUCCGCAAGAAAGGGGAGCCUCACCACGAGCUGCCCCCAGGGAGCACUAAGCGAGCACUGCCCAACAACACCAGCUCCUCUCCCCAGCCAAAGAAGAAACCACUGGAUGGAGAAUAUUUCACCCUUCAGAUCCGUGGGCGUGAGCGCUUCGAGAUGUUCCGAGAGCUGAAUGAGGCCUUGGAACUCAAGGAUGCCCAGGCUGGGAAGGAGCCAGGGGGGAGCAGGGCUCACUCCAGCCACCUGAAGUAGUGAUAUCACUAGUGACUGACUAGGAUCUGGUUACCACUAAACCAGCCUCAAGAACACCCGAAUGGAGUCUCUAAGCUACAUAAUACCAACUUACACUUUACAAAAUGUUGUCCCCCAAAAUGUAGCCAUUCGUAUCUGCUCCUAAUAAAAAGAAAGUUUCUUCACAUUCUGCUAGCUCUAG
modifications: pseudouridine; (1)..(539) U=Pseudouridine
viability of GE CD34+ HSPCs [1]: significantly increased
viability of GE CD34+ HSPCs ([1]; listed as GSE-CS56 mRNA): rescue the cell viability
upregulation of interferon or other cytokines or cellular stress genes, transcriptional repression, toxicity or loss of viability [2]: not observed any significant upregulation
AAV-MAGT1 TI rates (targeted insertion) [3]: 62.3±18%
post-transplant TI [6]: slightly improved
percentages of NKG2D-expressing CD8+ T cells ([6]; week 16 post-transplant, PB, spleen, thymus): slightly improved
proliferative capacity [8]: better preserved

— patent US20240181005A1, “COMPOSITIONS, SYSTEMS, AND METHODS FOR GENERATING GENE-EDITED CELLS” (CellScript, LLC, priority 2020, published 2024)
